Measured values as given in patent publication US20040072770A1, “Methods for specifically inhibiting histone deacetylase-7 and 8” (priority 2002, published 2004).

Assays:
MDAmb231 cells [1] = test: Apoptosis (Cell Death Detection ELISA), MDAmb231; format: cell-based, human; settings: 50 nM, 48 hours, over mismatch control
MDAmb231 cells [2] = test: Inhibition of agar colony formation, MDAmb231; format: cell-based, human; settings: 50 nM oligos for 48 hours, vs cells treated with lipofectin
A549 cells [3] = test: Growth inhibition by antisense oligos, A549; format: cell-based, human; settings: 50 nM, 48 hour, vs cells treated with lipofectin
Method: (§1) For all ex vivo oligo treatment, human A549 human […] carcinoma cells were seeded in 10 cm tissue culture dishes one day prior to oligonucleotide treatment. The cell lines were obtained from the American Type Culture Collection (ATCC) (Manassas, Va.) and were grown under the recommended culture conditions. Before the addition of the oligonucleotides, cells were washed with PBS (phosphate buffered saline). Next, lipofectin transfection reagent (GIBCO BRL Mississauga, Ontario, Calif.), at a concentration of 6.25 μg/ ml, was added to serum free OPTIMEM medium (GIBCO BRL, Rockville, Md.), which was then added to the cells. The oligonucleotides were added directly to the cells (i.e., one oligonucleotide per plate of cells). Mismatched oligonucleotides were used as controls. The same concentration of oligonucleotide (e.g., 50 nM) was used per plate of cells for each oligonucleotide tested.
(§2) In order to determine the effect of HDAC ODNs on cell growth inhibition and cell death through apoptosis, A549, T24, DuI45, HCT116 cells (ATCC, Manassas, Va.), or HMEC cells (BioWhittaker, Walkersville, Md.) were treated with HDAC ODNs as previously described.
(§3) For the cell growth inhibition analysis, human cancer or normal cells were treated with 50 nM of paired AS or MM oligos directed against human HDAC-1, HDAC-7 or HDAC-8for up to 96 hours. Cell numbers were counted every day by trypan blue exclusion. Percentage of inhibition was calculated as (100 - AS cell numbers/control cell numbers)%.

H446 cells = test: Growth inhibition by antisense oligos, H446; format: cell-based, human; settings: 75 nM treatment for 2 days, vs cells treated with lipofectin
HCT116 cells = test: Apoptosis (Cell Death Detection ELISA), HCT116; format: cell-based, human; settings: 50 nM, 48 hours, over mismatch control
Method: as §1, with “tested. […]” for “tested.”
For the apoptosis study, cells were analyzed using the Cell Death Detection ELISA^Plus kit (Roche Diagnostic GmBH, Mannheim, Germany) according to the manufacturer's directions. […] Each sample was analyzed in duplicate. ELISA reading was done using a MR700 plate reader (DYNEX Technology, Ashford, Middlesex, England) at 410 nm. […]

A549 cells [4] = test: Apoptosis (Cell Death Detection ELISA), A549; format: cell-based, human; settings: 50 nM, 48 hours, over mismatch control
Method: as §1, §2
(§4) For the apoptosis study, cells were analyzed using the Cell Death Detection ELISA^Plus kit (Roche Diagnostic GmBH, Mannheim, Germany) according to the manufacturer's directions. Typically, 10,000 cells were plated in 96-well tissue culture dishes for 2 hours before harvest and lysis. Each sample was analyzed in duplicate. ELISA reading was done using a MR700 plate reader (DYNEX Technology, Ashford, Middlesex, England) at 410 nm. The reference was set at 490 nm.
[…] Similarly, A549 cells were treated with 20 nM of HDAC1 AS in combination with 20 nM of each of AS inhibitors against human HDAC2 to HDAC8. After 48 hour treatment, A549 cells were harvested and analyzed for apoptosis by ELISA as described previously. Apoptosis of A549 cells by AS inhibition was compared to that of cells treated with 1 uM TSA for 16 hours. […] The control oligo UMM had no effect on induction of apoptosis.

T24 cells [5] = test: Apoptosis (Cell Death Detection ELISA), T24; format: cell-based, human; settings: 50 nM, 48 hours, over mismatch control
Method: as §1, §2, §4

MCF-7 cells [6] = test: Growth inhibition by antisense oligos, MCF-7; format: cell-based, human; settings: 75 nM treatment for 2 days, vs cells treated with lipofectin
Method: [The procedure below names another cell line; the source lists this cell line under the same test.] as §1, with “tested. […]” for “tested.”
as §3

T24 cells [7] = test: Growth inhibition by antisense oligos, T24; format: cell-based, human; settings: 50 nM, 48 hour, vs cells treated with lipofectin
Method: as §1, with “tested. […]” for “tested.”
as §3

MCF-7 cells [8] = test: Apoptosis (Cell Death Detection ELISA), MCF-7; format: cell-based, human; settings: 50 nM, 48 hours, over mismatch control
Du145 cells = test: Growth inhibition by antisense oligos, Du145; format: cell-based, human; settings: 50 nM, 48 hour, vs cells treated with lipofectin
Method: as §1, §2, §3

MDAmb231 cells [9] = test: Growth inhibition by antisense oligos, MDAmb231; format: cell-based, human; settings: 50 nM, 48 hour, vs cells treated with lipofectin
Method: [The procedure below names another cell line; the source lists this cell line under the same test.] as §1, with “tested. […]” for “tested.”
as §3

human HDAC-1 RNA = test: HDAC-1 RNA expression screen in T24 cells, Northern blot; format: cell-based; settings: 100 nM, 24 hours
Method: To identify antisense oligodeoxynucleotide (ODN) capable of inhibiting HDAC-1 expression in human cancer cells, eleven phosphorothioate ODNs containing sequences complementary to the 5′ or 3′ UTR of the human HDAC-1 gene (GenBank Accession No. U50079) were initially screened in T24 cells at 100 nM. Cells were harvested after 24 hours of treatment, and HDAC-1 RNA expression was analyzed by Northern blot analysis. […] HDAC-1 MM oligo was created as a control; compared to the antisense oligo, it has a 6-base mismatch.

A549 cells [10] = test: Inhibition of agar colony formation, A549; format: cell-based, human; settings: 50 nM oligos for 48 hours, vs cells treated with lipofectin

5′-GAAACGTGAGGGACTCAGCA-3′ (chemistry not given here) [HD1 AS1]
Apoptosis MDAmb 231 (MDAmb231 cells [1]): + (“+” means the induction of apoptosis at least 2 fold over mismatch control (50 nM, 48 hours))
inhibition of agar colony formation MDAmb 231 (MDAmb231 cells [2]): + (“+” means >35% inhibition of agar colony formation of cells treated with 50 nM oligos for 48 hours compared to that of cells treated with lipofectin)
Growth Inhibition A549 (A549 cells [3]): + (“+” means >35% inhibition of cell growth by antisense oligos (50 nM, 48 hour) compared to that of cells treated with lipofectin)
Growth Inhibition H446 (H446 cells): + (“+” means >35% inhibition of cell growth by antisense oligos (50 nM, 48 hour) compared to that of cells treated with lipofectin)
Apoptosis HCT 116 (HCT116 cells): + (“+” means the induction of apoptosis at least 2 fold over mismatch control (50 nM, 48 hours))
Apoptosis A549 (A549 cells [4]): + (“+” means the induction of apoptosis at least 2 fold over mismatch control (50 nM, 48 hours))
Apoptosis T24 (T24 cells [5]): + (“+” means the induction of apoptosis at least 2 fold over mismatch control (50 nM, 48 hours))
Growth Inhibition MCF-7 (MCF-7 cells [6]): + (“+” means >35% inhibition of cell growth by antisense oligos (50 nM, 48 hour) compared to that of cells treated with lipofectin)
Growth Inhibition T24 (T24 cells [7]): + (“+” means >35% inhibition of cell growth by antisense oligos (50 nM, 48 hour) compared to that of cells treated with lipofectin)
Apoptosis MCF-7 (MCF-7 cells [8]): + (“+” means the induction of apoptosis at least 2 fold over mismatch control (50 nM, 48 hours))
Growth Inhibition Du145 (Du145 cells): + (“+” means >35% inhibition of cell growth by antisense oligos (50 nM, 48 hour) compared to that of cells treated with lipofectin)
Growth Inhibition MDAmb 231 (MDAmb231 cells [9]): + (“+” means >35% inhibition of cell growth by antisense oligos (50 nM, 48 hour) compared to that of cells treated with lipofectin)
HDAC-1 RNA expression, screen (human HDAC-1 RNA): antisense activity to human HDAC-1
inhibition of agar colony formation A549 (A549 cells [10]): + (“+” means >35% inhibition of agar colony formation of cells treated with 50 nM oligos for 48 hours compared to that of cells treated with lipofectin)
